± gives the expanded uncertainty stated by the source.
Assay: xn = mol fraction of the nth substance listed
Settings: 101.33 kPa, Liquid, Vibrating tube method

NCCO [2-aminoethan-1-ol] + CO
mass density [kg/m3]
Settings	283.15 K	288.15 K	293.15 K	298.15 K	303.15 K	308.15 K	313.15 K	318.15 K
x1 = 0.012	805.83 ± 0.14	801.17 ± 0.14	796.49 ± 0.15	791.8 ± 0.15	787.1 ± 0.15	782.38 ± 0.15	777.63 ± 0.16	772.84 ± 0.16
x1 = 0.031	813.82 ± 0.14	809.2 ± 0.14	804.57 ± 0.15	799.92 ± 0.15	795.25 ± 0.15	790.55 ± 0.15	785.84 ± 0.15	781.09 ± 0.16
x1 = 0.05	821.45 ± 0.14	816.86 ± 0.14	812.26 ± 0.14	807.64 ± 0.15	803 ± 0.15	798.35 ± 0.15	793.66 ± 0.15	788.95 ± 0.16
x1 = 0.1	840.61 ± 0.14	836.11 ± 0.15	831.59 ± 0.15	827.05 ± 0.15	822.49 ± 0.15	817.92 ± 0.15	813.31 ± 0.15	808.68 ± 0.16
x1 = 0.15	858.27 ± 0.15	853.79 ± 0.15	849.33 ± 0.16	844.86 ± 0.16	840.37 ± 0.16	835.87 ± 0.16	831.33 ± 0.16	826.77 ± 0.16
x1 = 0.2002	874.67 ± 0.17	870.3 ± 0.17	865.9 ± 0.17	861.49 ± 0.17	857.06 ± 0.17	852.62 ± 0.17	848.14 ± 0.17	843.64 ± 0.17
x1 = 0.2501	889.65 ± 0.18	885.33 ± 0.18	880.98 ± 0.18	876.62 ± 0.18	872.24 ± 0.18	867.83 ± 0.19	863.41 ± 0.19	858.96 ± 0.19
x1 = 0.2974	902.94 ± 0.2	898.66 ± 0.2	894.35 ± 0.2	890.03 ± 0.2	885.69 ± 0.2	881.34 ± 0.2	876.95 ± 0.2	–
x1 = 0.3502	916.72 ± 0.22	912.48 ± 0.22	908.21 ± 0.22	903.94 ± 0.22	899.65 ± 0.22	895.33 ± 0.22	891 ± 0.22	–
x1 = 0.4001	928.53 ± 0.24	924.32 ± 0.24	920.09 ± 0.24	915.84 ± 0.24	911.58 ± 0.24	907.3 ± 0.24	903 ± 0.24	–
x1 = 0.4427	938.12 ± 0.26	933.94 ± 0.26	929.73 ± 0.26	925.51 ± 0.26	921.28 ± 0.26	917.02 ± 0.26	912.75 ± 0.26	–
x1 = 0.4502	939.89 ± 0.26	935.71 ± 0.26	931.52 ± 0.26	927.31 ± 0.26	923.08 ± 0.26	918.84 ± 0.26	914.57 ± 0.26	–
x1 = 0.5002	950.16 ± 0.28	946.01 ± 0.28	941.84 ± 0.28	937.66 ± 0.28	933.46 ± 0.28	929.24 ± 0.28	925 ± 0.28	–
x1 = 0.5501	959.78 ± 0.3	955.65 ± 0.3	951.5 ± 0.3	947.35 ± 0.3	943.18 ± 0.3	938.99 ± 0.3	934.78 ± 0.3	–
x1 = 0.6001	968.89 ± 0.32	964.79 ± 0.32	960.67 ± 0.32	956.54 ± 0.32	952.39 ± 0.32	948.22 ± 0.32	944.04 ± 0.31	–
x1 = 0.6501	977.39 ± 0.34	973.31 ± 0.34	969.21 ± 0.34	965.1 ± 0.34	960.97 ± 0.34	956.84 ± 0.34	952.68 ± 0.34	–
x1 = 0.7005	985.59 ± 0.36	981.53 ± 0.36	977.45 ± 0.36	973.37 ± 0.36	969.28 ± 0.36	965.16 ± 0.36	961.03 ± 0.36	–
x1 = 0.7479	992.48 ± 0.39	988.45 ± 0.39	984.39 ± 0.38	980.32 ± 0.38	976.24 ± 0.38	972.15 ± 0.38	968.04 ± 0.38	–
x1 = 0.8002	1000.19 ± 0.41	996.18 ± 0.41	992.15 ± 0.41	988.11 ± 0.41	984.06 ± 0.41	980 ± 0.41	975.92 ± 0.41	–
x1 = 0.8502	1006.55 ± 0.44	1002.56 ± 0.44	998.55 ± 0.44	994.53 ± 0.43	990.5 ± 0.43	986.45 ± 0.43	982.4 ± 0.43	–
x1 = 0.8967	1012.63 ± 0.46	1008.66 ± 0.46	1004.66 ± 0.46	1000.67 ± 0.46	996.66 ± 0.46	992.63 ± 0.46	988.6 ± 0.45	–
x1 = 0.9501	1018.78 ± 0.49	1014.82 ± 0.49	1010.85 ± 0.49	1006.88 ± 0.49	1002.89 ± 0.48	998.89 ± 0.48	994.88 ± 0.48	–

— the NIST ThermoML archive (doi:10.1016/j.tca.2004.11.015)
